Laboratory results reported in article PMC5418359, “Topical Ophthalmic Formulation of Trichostatin A and SurR9-C84A for Quick Recovery Post-alkali Burn of Corneal Haze” (Frontiers in Pharmacology, 2017).

Legend:
[1] = Ocular and systemic pharmacokinetics of TSA after topical application; conditions: for Concentration of TSA in Aqueous humor / Concentration of TSA in Conjunctiva / Concentration of TSA in Cornea / Concentration of TSA in Plasma / Concentration of TSA in Tear fluid: mean ±SD; for AUC0-8 / AUC0-∞ / Cmax / Tmax / t1/2: rat, topical application
Description: Pharmacokinetic analysis was done using the HPLC System for the levels of TSA in eye tissue and plasma samples was measured using PK methods. PK estimated using standard measurements for maximum concentration (Cmax), time to reach Cmax (Tmax), area under the concentration–time curve (AUC), elimination rate constant (K), elimination half-life (t1/2), apparent clearance (CL/F), apparent volume of distribution (Vd/F).

[2] = tested on: cornea; test: Mean opacity and mean permeability measurements, rat alkali burn model; type: in vivo; conditions: 1 M NaOH 1 min, topical treatment 40 min
Description: The mean in vivo scores was determined using the mean opacity measurements. The rat eyes were excised carefully and carried to the laboratory in HBSS supplemented with penicillin/streptomycin. The measurement of mean opacity was carried out using an opacitometer which measures the transmission of light through the center of each mounted cornea. The mean permeability score was determined by adding a fluorescent (rhodamine solution) on the anterior side of the holder and the corneas were incubated in a horizontal position for 90 min at 32°C. The medium in the posterior chamber was removed and added to 96 well plates and the OD at 490 nm was read. The readings obtained at OD490 were used to determine the permeability of each treatment with respect to the change in the untreated corneas.

[3] = tested on: rat corneal lysates
[4] = tested on: rat corneal tissues; conditions: confocal microscopy
[5] = tested on: conjunctival layer and corneal matrix; test: H&E histology of corneal segments, rat alkali burn model; type: in vivo; conditions: 1 M NaOH 1 min, topical treatment 40 min
Description: After the completion of the study, all tissues that required to be examined (eyes, brain, kidneys, liver, spleen, heart and lungs) were isolated. The cornea was carefully separated from the eye without damaging it and washed using phosphate buffer saline (PBS). Tissues were fixed using 4% paraformaldehyde (PF) overnight at 4°C and then washed in PBS. The tissue segments were dehydrated in graded ethanol, embedded in paraffin and 5–7 μm thick sections were cut using a microtome. Sections were collected on poly-lysine coated slides using the Leica cryostat and were fixed immediately in ice-cold acetone. All the sections were stained for haematoxylin–eosin (H&E) for critical analysis.

[6] = tested on: rat eyes post-alkali burn
[7] = tested on: corneal lysate; test: Multianalyte ELISA of inflammatory cytokines in corneal lysate; type: in vivo, rat
Description: The cytokine profiling was performed using the Rat Inflammatory Cytokines & Chemokines Multi-Analyte ELISArray Kit (QIAGEN, USA). Briefly, serial dilutions of the Antigen Standard and the experimental samples were prepared. 50 μL of Assay Buffer was added to each well of the 8-well ELISA strips. Fifty microliters samples and/or standards were added to the appropriate wells of the ELISA strips and incubated for 2 h at room temperature. The ELISA strips were further washed using 350 μL 1 × Washing Buffer thrice. Hundred microliters of Detection Antibody solution was added to the ELISA strips and incubated for 1 h at room temperature. ELISA wells were washed as mentioned above. Hundred microliters of the Avidin–HRP solution was added to all wells and incubated for 30 min at room temperature. ELISA wells were washed as mentioned above. Hundred microliters of Development Solution was added to each well and incubated for 15 min at room temperature in the dark. Hundred microliters of Stop Solution was added to each well. The color changed from blue to yellow. The absorbance at 450 nm was measured within 30 min of stopping the reaction. The estimation of pg/mL of cytokines was performed using the values obtained from antigen standards and a graph was plotted for the cytokine expression with the effect of treatments.

[8] = tested on: expression of survivin, TGF-beta-1, alpha-SMA and collagen IV in alkali burnt cornea; test: Ex vivo RT-PCR dose ranging in alkali burnt rat eyes; conditions: 1 M NaOH 1 min, treatment 40 min
Description: This procedure was carried out using a previously published protocol ([Lin et al., 2016]). Rat eyes were harvested from humanely killed rats and washed with HBSS. Rat eyes were further incubated with 1 M NaOH for 1 min and then treated with TSA ([…]), SurR9-C84A (0.5, 1.2, and 2.5 mg/kg), pSur/As-Sur ([…]) and empty plasmid (200, 400, and 800 μg/kg) for 40 min. Untreated eyes were maintained as controls. After treatment period, eyes were washed with PBS and total RNA was extracted using the TRIzol® reagent (cat# 15596-026, Thermo Fisher Scientific, Waltham, MA, USA), and complementary DNA (cDNA) was synthesized from RNA using the RevertAid H Minus First Strand cDNA Synthesis Kit (cat# K1631, Thermo Fisher Scientific). Expression of survivin, TGF-beta-1, alpha-SMA and collagen IV was determined by polymerase chain reaction (PCR).

[9] = Blood analysis; type: in vivo; design: HCT / MCH / WBC / RBC / HGB / MCHC: unit not given here; conditions: rat blood
Description: The analysis of blood samples was performed directly using the ABX Micros ES 60 (Horiba Medicals). The parameters analyzed included the number of red blood cells (RBC’s), white blood cells (WBC’s), platelets and hemoglobin content. Briefly, 20 μL of the blood sample was acquired in the instrument and the readings were recorded.

[10] = 2 min after topical application in eye
[11] = 10 min after topical application in eye
[12] = 30 min after topical application in eye

CC(/C=C/C(=O)NO)=C\[C@@H](C)C(=O)c1ccc(N(C)C)cc1 [TSA, trichostatin A]
Concentration of TSA in Aqueous humor [1, 10]: 119.43 ± 37.92 ng/mL | Concentration of TSA in Conjunctiva [1, 10]: 267.88 ± 75.51 µg/g | Concentration of TSA in Cornea [1, 10]: 216.83 ± 78.05 µg/g | Concentration of TSA in Plasma [1, 10]: 103.61 ± 28.37 ng/mL | Concentration of TSA in Tear fluid [1, 10]: 333.42 ± 69.72 µg/g | Concentration of TSA in Aqueous humor [1, 11]: 112.94 ± 15.10 ng/mL | Concentration of TSA in Conjunctiva [1, 11]: 261.29 ± 66.47 µg/g | Concentration of TSA in Cornea [1, 11]: 291.02 ± 109.25 µg/g | Concentration of TSA in Plasma [1, 11]: 263.87 ± 80.96 ng/mL | Concentration of TSA in Tear fluid [1, 11]: 208.93 ± 30.82 µg/g | Concentration of TSA in Conjunctiva [1, 12]: 178.23 ± 35.22 µg/g | Concentration of TSA in Cornea [1, 12]: 762.86 ± 385.68 µg/g | Concentration of TSA in Plasma [1, 12]: 109.16 ± 33.00 ng/mL | Concentration of TSA in Tear fluid [1, 12]: 154.98 ± 73.25 µg/g | AUC0-8 ([1]; Aqueous humor): 7568 µg·h/g | AUC0-∞ ([1]; Aqueous humor): 7689 µg·h/g | Cmax ([1]; Aqueous humor): 11,046 ± 2734 μg/g | Tmax ([1]; Aqueous humor): 20 min | t1/2 ([1]; Aqueous humor): 90 min | AUC0-8 ([1]; Conjunctiva): 53.4 µg·h/g | Cmax ([1]; Conjunctiva): 26.26 ± 7.19 µg/g | Tmax ([1]; Conjunctiva): 5 min | t1/2 ([1]; Conjunctiva): 252 min | AUC0-8 ([1]; Cornea): 45.5 µg·h/g | AUC0-∞ ([1]; Cornea): 55.5 µg·h/g | Cmax ([1]; Cornea): 44.67 ± 12.91 µg/g | Tmax ([1]; Cornea): 5 min | t1/2 ([1]; Cornea): 210 min | AUC0-8 ([1]; Plasma): 65.5 µg·h/g | AUC0-∞ ([1]; Plasma): 68.4 µg·h/g | Cmax ([1]; Plasma): 160.3 ± 61.0 µg/g | Tmax ([1]; Plasma): 10 min | t1/2 ([1]; Plasma): 90 min | AUC0-8 ([1]; Tear fluid): 678.5 µg·h/g | AUC0-∞ ([1]; Tear fluid): 768.5 µg·h/g | Cmax ([1]; Tear fluid): 2,987 ± 1814 μg/g | Tmax ([1]; Tear fluid): 5 min | t1/2 ([1]; Tear fluid): 138 min | Mean in vitro score [2]: 0.20 ± 0.5^∗ | Mean opacity measurement [2]: 0.5 ± 0.2 ^∗ | Predicted irritation potential [2]: No irritation | enhancement of Fibronectin-1 expression, western blot ([3]; post-NaOH insult): 1.97 fold | increase in TGF-beta-1 expression, western blot ([3]; post-NaOH insult): 1.45 fold | decrease/downregulation of collagen type IV, western blot ([3]; rat, in vivo, iv): 2.8 fold | alpha-SMA expression, immunofluorescence [4]: failed to downregulate it effectively | collagen type IV expression, immunofluorescence [4]: most effective in increasing | corneal tissue integrity (conjunctival layer, corneal matrix), H&E [5]: recovery of the conjunctival layer | Collagen type IV gene expression, qRT-PCR [6]: efficiently downregulated | Fibronectin-1 gene expression, qRT-PCR [6]: significantly enhanced | IL-1 beta gene expression, qRT-PCR [6]: increase | IL-6 gene expression, qRT-PCR [6]: significantly lowered | MMP-2 gene expression, qRT-PCR [6]: downregulating | TGF-beta-1 gene expression, qRT-PCR [6]: further increase | TNF-alpha gene expression, qRT-PCR [6]: significantly lowered | alpha-SMA gene expression, qRT-PCR [6]: significant increase | alpha-integrin 5 gene expression, qRT-PCR [6]: significant increase | GMCSF expression, ELISA [7]: downregulated effectively | IFN-gamma expression, ELISA [7]: significant downregulation | IL-1 beta expression, ELISA [7]: downregulation | IL-2 expression, ELISA [7]: significantly increased | IL-4 expression, ELISA [7]: increase | IL-6 expression, ELISA [7]: downregulated effectively | IL-12 expression, ELISA [7]: further downregulation | IL-13 expression, ELISA [7]: downregulated effectively | Rantes expression, ELISA [7]: significantly downregulated | TNF-alpha expression, ELISA [7]: downregulated effectively | most effective dosage in inhibiting expression of survivin, alpha-SMA, TGF-beta-1 and collagen IV [8]: 0.02 mg/kg | HCT [9]: increased the HCT count to normal range | HGB [9]: 17.61 ± 1.41 | MCH [9]: reduced to normal range | MCHC [9]: 38.15 ± 1.63 | PLT [9]: 256.33 ± 117 | RBC [9]: 8.15 ± 0.61 | WBC [9]: 5.48 ± 2.06 | MCV ([9]; in fL (unit assumed)): 56.66 ± 1.86 | HCT ([9]; listed as NaOH–TSA): 46.2 ± 4.14 | MCH ([9]; listed as NaOH–TSA): 21.63 ± 1.01
